Results from patent US20240408132A1, “HYPOHALOUS ACIDS FOR TREATING INFLAMMATORY DISEASES AND INHIBITING GROWTH OF MALIGNANCIES” (BT Manufacturing, LLC, priority 2020, published 2024).
Like-named read-outs stand apart in the source and are kept apart here.

Tests used:
IL-6 [1] = biological target: T1, IL-6 (Homo sapiens, UniProt P05231); experiment: ELISA of IL-6 binding to anti-IL6 antibody after exposure to HOCl or HOBr; details: IL-6 exposed for 5 minutes at concentrations >2 ppm, halogen quenched before incubation
T1 sequence (P05231 30-212): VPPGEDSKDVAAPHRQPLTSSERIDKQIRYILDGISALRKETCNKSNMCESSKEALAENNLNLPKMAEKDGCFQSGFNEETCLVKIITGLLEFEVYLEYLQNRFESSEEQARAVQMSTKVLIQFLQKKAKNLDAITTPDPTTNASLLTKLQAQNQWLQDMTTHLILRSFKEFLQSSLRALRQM
Experimental: An ELISA assay (Fisher Scientific) was used to detect binding changes between IL6 and anti-IL6 antibody binding in the presence of HOCl or HOBr. Anti-human IL6 antibody was immobilized to a polystyrene 96 well plate as the capture antibody. IL-6 was exposed to various concentrations of HOCl or HOBr for 5 minutes. The active halogen was quenched before incubation with the coated plate wells. A second anti-human IL6 antibody was introduced to the coated wells and served as a detector to an enzyme-mediated chromophore indicator system.
The inhibition of IL-6 reactivity by exposure to HOCl is illustrated in FIG. 1.

human subjects = experiment: Safety of human volunteers exposed to microaerosolized HOCl via inhalation; format: in vivo; details: dense microaerosols for 2-5 minutes, 400 episodes
Experimental: The safety of exposure of human subjects to microaerosolized pure stable HOCl via the respiratory route was evaluated.
Human volunteers were exposed to dense microaerosols of HOCl for periods of 2-5 minutes and submitted subjective reports of the outcomes of these experiences. Data on a total of 400 such episodes were collected under medical supervision.

IL-6 [2] = biological target: T1, IL-6; experiment: IL-6 bioassay (Promega), luminescence in receptor-expressing human cells; format: cell-based
Experimental: An IL-6 bioassay (Promega) was used to determine the effect of HOCl on IL-6 binding to human cells triggering a change in luminescence. IL-6 was incubated with various concentrations of HOCl and quenched, before addition to the receptor-expressing human cells.
Binding of the cytokine was measured by luminescence.

mouse [3] = details: in vivo
Description: (§1) Experimental exposures of rodents were done according to OECD method 423 for acute oral toxicity assessment, OECD method 434 for acute dermal toxicity and OECD method 433 for acute inhalation.

mouse [4] = details: in vivo; remark: listed apart in the source
Description: as §1

OBr [HOBr, Hypobromous acid]
binding of IL-6 to the capture antibody (IL-6 [1]): undetectable

OCl [HOCl, hypochlorous acid]
serious adverse effects (human subjects): No serious adverse effects
minor complaints (nose irritation, slight impact on ease of deep breathing) (human subjects; disappeared upon cessation of exposure): approximately 3%
capacity of the cytokine to initiate transmembrane signaling (IL-6 [2]; IL-6 exposed to HOCl): complete inhibition
luminescence of HOCl-treated IL-6 (IL-6 [2]; all concentrations tested, IL-6 incubated with HOCl and quenched before addition to cells): significantly reduced luminescence
Result/Behavior (mouse [3]): No change
Result/Histopathology (mouse [3]): No
Result/Behavior (mouse [4]): No change
Result/Histopathology (mouse [4]): No
binding of IL-6 to the capture antibody (IL-6 [1]): no detectable binding
